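In this assay, cells in 96-well plates receive the compound at five concentrations for 48 hours. Endpoints are linearly interpolated between the surrounding concentrations. GI50: concentration for 50% inhibition of growth. TGI: concentration producing complete growth inhibition.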

What all share (experiment): NCI tumour cell line growth inhibition, 48 h
Assay [1] has as its system A549 NSCLC.
Assay [2] relates to NCI-H522 lung.
For assay [3], the system named is NCI-H226 lung.
Assay [4] concerns SF-539 CNS.
The subject of assay [5] is SNB-75 CNS.
In assay [6] the test system is OVCAR-3 ovarian.
Assay [7] concerns HCT-15 colon.
The test system of assay [8] is ACHN renal.
Assay [9] has as its system CCRF-CEM leukemia.

Turning to `CCC[CH2][Sn]1([CH2]CCC)[O]CC(Cc2ccccc2)[O]1` (stereo not drawn), the GI50 in assay [1] is 15.3 µM; in [2] it was 0.259 µM; in [3] it was 15.4 µM; in assay [4], 1.87 µM; in assay [5], 2.76 µM; in [6] it was 2.34 µM. In addition, the GI50 in assay [7] is 2.24 µM; in assay [8], 2.22 µM; in assay [9], 1.22 µM. In addition, the TGI in assay [1] turned out to be 28.9 µM; in [2] it was 0.93 µM; in assay [3], 29.5 µM; in [4], 4.15 µM; in [5], 7.74 µM; in assay [6], 7.42 µM. The TGI in assay [7] was determined as 5.82 µM; in assay [8] it was 4.39 µM; in assay [9] it was 4.57 µM.
As for `COC(=O)/C=C1/CCC(C(=O)OC)N1` (stereo not drawn), the TGI in assay [1], in assay [4], in assay [5], in assay [6], in assay [7] and in assay [8] was more than 100 µM throughout. Further, the TGI in assay [9] is more than 100 µM.
As to `COC(=O)N(C(=O)OC)C(C(=O)O)C(C)C` (stereo not drawn), the TGI in [1], in [2], in assay [3], in assay [4], in assay [5] and in assay [8] was more than 100 µM in each case.
On to `CCCCCC[N+](C)(C)Cc1ccc(C[N+](C)(C)CCCCCC)cc1`, for which the TGI in [1] was determined as 12.8 µM; in [3], 20.4 µM; in [5] it was 10.8 µM; in assay [6] it was 14.4 µM; in assay [7], 23.7 µM; in assay [8] it was 24.8 µM.
Consider `CN(C)CC(C)(C)C(=O)/C=C/c1ccc(/C=C/C(=O)C(C)(C)CN(C)C)cc1`, for which the TGI in assay [1] was determined as 7.4 µM; in assay [2] it was 0.292 µM; in assay [3], 4.93 µM; in assay [4], 3.81 µM; in [5] it was 3.05 µM; in [6], 2.59 µM. Besides, the figures for the TGI in assay [7], in assay [8] and in [9] were 5.49 µM, 2.84 µM and 3.78 µM, respectively.
For the compound `O=C(O)CCCCCCC[C@H]1S[C@H]1CCCCCCO`, the TGI in assay [4], in assay [6] and in assay [7] was more than 100 µM throughout.
For `[Cl-].[O-]/N=C(\c1ccccc1)c1ccccn1.[O-]/N=C(\c1ccccc1)c1ccccn1.[O-]/N=C(\c1ccccc1)c1ccccn1.[Sm+3]`, the GI50 was 35.8 µM in [1]; 24.6 µM in assay [2]; 24.1 µM in [3]; 28.1 µM in [4]; 4.49 µM in assay [5]; 18 µM in assay [6]. The GI50 is 32.4 µM in assay [7], 29.3 µM in assay [8] and 26.6 µM in assay [9]. The TGI in assay [1] is more than 100 µM; in assay [2], 75.3 µM; in assay [3] it was 62.5 µM; in [4] it was 75.2 µM; in assay [5], 31.3 µM; in assay [6], 73.7 µM. Also, the TGI is more than 100 µM in [7], more than 100 µM in assay [8] and 98.8 µM in assay [9].
For the compound `Cc1ccc(SC(CCC(Sc2ccc(C)cc2)Sc2ccc(C)cc2)Sc2ccc(C)cc2)cc1`, the TGI in assay [1], in assay [2], in assay [4], in [5], in assay [6] and in [7] was more than 100 µM in each case. Further, the TGI in assay [8] and in assay [9] was more than 100 µM each time.
With `Cc1nc(Nc2ccc(Cl)cc2)sc1C(=O)NNc1ccc([N+](=O)[O-])cc1[N+](=O)[O-]`, the TGI in assay [1] stood at 34.2 µM; in [2] it was 29.6 µM; in assay [3], 32.6 µM; in assay [4], 32 µM; in assay [5], 32.5 µM; in assay [6] it was 38.7 µM. Further, the TGI amounted to 40.9 µM in [8] and 52.3 µM in [9].
As to `c1cc(N(CCn2cccn2)CCn2cccn2)cc(N(CCn2cccn2)CCn2cccn2)c1`, the TGI in assay [1], in assay [2], in assay [5], in [6], in assay [7] and in [8] was more than 100 µM each time. In addition, the TGI in [9] was more than 100 µM.
With `CCOC(=O)C1N(S(=O)(=O)c2ccc(C)cc2)CCC12c1ccccc1N(C(C)=O)C2c1ccc(OC)c(OC)c1` (stereo not drawn), the TGI in [1], in assay [2], in assay [3], in assay [4], in [5] and in assay [6] was more than 100 µM in each case. Further, the TGI in assay [8] and in assay [9] was more than 100 µM each time.
As to `O=C1c2ccccc2C(Br)(Br)c2ccccc21`, the TGI in [1] is more than 31.6 µM; in [2], more than 31.6 µM; in assay [3] it was more than 31.6 µM; in [4], more than 100 µM; in assay [5], more than 31.6 µM; in [6], more than 31.6 µM. Further, the TGI in [7], in assay [8] and in assay [9] was more than 31.6 µM throughout.
In the case of `CC(=O)[CH-]C(C)=O.CC(=O)[CH-]C(C)=O.[CH2-]CCC.[CH2-]CCC.[Sn+4]`, the GI50 in assay [1] was 1.88 µM; in [2] it was 0.0586 µM; in [3], 1.77 µM; in assay [4], 0.61 µM; in assay [5], 0.509 µM; in assay [6], 0.707 µM. Moreover, the GI50 is 0.68 µM in assay [7], 0.487 µM in assay [8] and 0.0483 µM in assay [9]. Moreover, the TGI in assay [1] came out at 4.15 µM; in [2], 0.122 µM; in assay [3], 3.45 µM; in assay [4], 1.91 µM; in [5], 1.79 µM; in assay [6] it was 1.96 µM. Also, the TGI in [7] stood at 1.99 µM; in assay [8] it was 1.66 µM.
Turning to `CC(=O)[O][Ga]([Cl])[O]C(C)=O`, the GI50 in [1], in assay [2], in assay [3], in [4], in assay [5] and in [6] was more than 100 µM in each case. The GI50 in [8] and in assay [9] was more than 100 µM each time. Besides, the TGI in assay [1], in [2], in assay [3], in assay [4], in [5] and in assay [6] was more than 100 µM throughout. Moreover, the TGI in [8] and in [9] was more than 100 µM each time.
In the case of `CC(C)=CC(=O)C/C(=N\NC(N)=S)C(=O)Nc1ccc(Cl)cc1`, the TGI in assay [1], in assay [3], in assay [4], in [5], in assay [6] and in assay [7] was more than 100 µM in each case. Moreover, the TGI in assay [8] and in assay [9] was more than 100 µM each time.
As for `COc1ccc(OC)c(/C(C)=N/NC(N)=S)c1`, the TGI in assay [1], in assay [3], in assay [4], in [5], in [6] and in assay [7] was more than 100 µM each time. Moreover, the TGI in [8] and in [9] was more than 100 µM throughout.
`C[N-]c1nnnn1C.[Au+].c1ccc([PH+](c2ccccc2)c2ccccc2)cc1`: the GI50 in assay [1] is 14.7 µM; in [3] it was 4.98 µM; in assay [4], 2.38 µM; in [5] it was 4.75 µM; in assay [6], 2.58 µM; in assay [7] it was 2.17 µM. Besides, the GI50 in assay [8] was 4.26 µM; in assay [9], 0.556 µM. Besides, the TGI was 68.7 µM in [1]; 14 µM in assay [3]; 7.39 µM in [4]; 11 µM in assay [5]; 6.53 µM in [6]; 5.72 µM in assay [7]. Moreover, the figures for the TGI in [8] and in assay [9] were 8.38 µM and 3.44 µM, respectively.
Take `CN(C)CC(C)(C)/C(=N\Nc1ccccc1)c1ccccc1`: the TGI in [1] was more than 100 µM; in [2], more than 100 µM; in [4] it was 63.4 µM; in assay [5] it was more than 100 µM; in assay [6] it was more than 100 µM; in assay [7], 53.8 µM. The TGI is 48.5 µM in [8] and more than 100 µM in [9].
`O=c1nc(/C=C/c2ccccc2Cl)cc2n1CCN2CCO`: the TGI in assay [2] is 47.4 µM; in assay [3], more than 100 µM; in [4], more than 100 µM; in assay [5], more than 100 µM; in assay [6], 79.8 µM; in assay [7], more than 100 µM. For the same compound, the TGI in assay [8] and in assay [9] was more than 100 µM each time.
For `COc1ccc(Nc2nc3ccc(C(F)(F)F)cc3nc2-c2ccccc2)cc1OC`, the TGI in assay [1] is more than 100 µM; in [2], 75.3 µM; in [3], more than 100 µM; in assay [4], more than 100 µM; in assay [5], more than 100 µM; in assay [6], more than 100 µM. The TGI in assay [7], in assay [8] and in assay [9] was more than 100 µM in each case.
Take `Cc1cc2c(ccc3c(C)cc(=O)oc32)o1`: the TGI in assay [1], in [2], in assay [3], in assay [4], in [5] and in assay [6] was more than 100 µM each time. The TGI in assay [7], in assay [8] and in assay [9] was more than 100 µM each time.
As for `COc1ccc(S(=O)(=O)Nc2ccccc2C(=O)O)cc1`, the TGI in assay [1], in [2], in [3], in [4], in assay [5] and in [6] was more than 100 µM in each case. For the same compound, the TGI in assay [7], in assay [8] and in [9] was more than 100 µM in each case.
Regarding `COc1ccc2c(CN3CCCCC3CO)cc3cc(OC)c(OC)cc3c2c1` (stereo not drawn), the TGI in [1] was determined as 14.2 µM; in assay [2], 7.72 µM; in assay [3], 16.7 µM; in assay [4] it was 15 µM; in assay [5], 22.1 µM; in assay [6], 19.4 µM. Besides, the TGI amounted to 20.8 µM in assay [7], 31.1 µM in assay [8] and 18.8 µM in [9].
For `C=C(COC(C)=O)CC(OC(C)=O)c1ccccc1` (stereo not drawn), the TGI in [1], in [2], in assay [3], in [4], in [5] and in assay [6] was more than 100 µM each time. For the same compound, the TGI in assay [7], in assay [8] and in assay [9] was more than 100 µM throughout.
Turning to `CC(C)CC(NC(=O)c1cccc(O)c1O)C(=O)NCc1cc(CNC(=O)C(CC(C)C)NC(=O)c2cccc(O)c2O)cc(CNC(=O)C(CC(C)C)NC(=O)c2cccc(O)c2O)c1` (stereo not drawn), the TGI stood at 50.3 µM in assay [1]; 16.8 µM in assay [2]; 60.2 µM in [3]; 20.9 µM in [4]; 45.9 µM in assay [5]; 19.7 µM in assay [6]. For the same compound, the TGI in assay [7] was more than 100 µM; in [8], more than 100 µM; in [9] it was 54 µM.
`Cc1ccc(NC(=O)C2C(=O)N(c3ccc(C)cc3)C(=O)/C2=N\NC(N)=S)cc1` (stereo not drawn): the TGI in assay [2], in assay [3], in [4], in [5], in assay [6] and in assay [7] was more than 100 µM throughout. In addition, the TGI in [8] was more than 100 µM.
As to `CC1CCC2(CC1)NN=c1s/c(=C\c3ccc(O)cc3)c(=O)n1N2` (stereo not drawn), the TGI in assay [1], in assay [2], in [3], in assay [4], in assay [5] and in assay [6] was more than 100 µM throughout. Besides, the TGI in assay [9] was more than 100 µM.
For `COc1ccc(OC)c2c1CC(C(=O)O)(C(=O)O)CC2=O`, the TGI in [1], in assay [3], in assay [5], in assay [6], in assay [7] and in assay [8] was more than 100 µM in each case.
On to `COc1ccc2c(c1)N1CCc3cc(OC)c(OC)cc3C1C2` (stereo not drawn), for which the TGI was more than 100 µM in [1]; more than 100 µM in assay [2]; 98.7 µM in [3]; more than 100 µM in assay [4]; more than 100 µM in [8]; more than 100 µM in assay [9].

The values above are taken from PubChem BioAssay (NCI).
